From the supplement of paper PMC5412046
Structures can show the parent of a compound that is named as a salt.

Key:
SB.mhdgc-1 [1] = assay: area under the dose-response curve of % viability (trapezoidal, 11 doses) (% viability x log10 concentration); higher = less cytotoxic; conditions: SB.mhdgc-1 (hereditary c.1380delA CDH1 gastric cancer)
In short: (§1)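 In 1536-well plates, each well held 500 gastric cancer cells of hereditary or sporadic patient origin in 5 μL medium. Compound in DMSO (23 nL, pintool) was added at 11 concentrations spaced threefold apart, and the top concentration was noted per compound. Luminescence was read on a ViewLux after a 48 h incubation and a 30 min room-temperature treatment with CellTiter-Glo. Figures give viability normalised to DMSO, either at the highest concentration or as trapezoidal area under the curve.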

SB.msgc-1 [2] = assay: as above; conditions: SB.msgc-1 (sporadic gastric cancer)
In short: as §1

SB.mhdgc-1 [3] = assay: viability at highest tested concentration (MAXR) relative to DMSO; higher = less cytotoxic; conditions: SB.mhdgc-1 (hereditary c.1380delA CDH1 gastric cancer)
In short: as §1

SB.msgc-1 [4] = assay: as above; conditions: SB.msgc-1 (sporadic gastric cancer)
In short: as §1

SMILES	area under the dose-response curve (SB.mhdgc-1 [1])	area under the dose-response curve (SB.msgc-1 [2])	viability (SB.mhdgc-1 [3]) [%]	viability (SB.msgc-1 [4]) [%]
CCOc1cc(N2CCC(O)CC2)ccc1Nc1ncc2c(n1)N(C)c1ccccc1C(=O)N2C [XMD8-92] (top concentration 46.0829 µM)	423	464	37.5	18.8
CN1CC/C(CC1)=C3\c4ccccc4CC(=O)c2sccc23 [Ketotifen] (top concentration 46.0829 µM)	446	468	41	9
CC1=C(/C=C/C(C)=C/C=C/C(C)=C\C(=O)O)C(C)(C)CCC1 [Isotretinoin] (top concentration 46.0829 µM)	388	405	43.2	49
CCNC(=O)c1noc(-c2cc(C(C)C)c(O)cc2O)c1-c1ccc(CN2CCOCC2)cc1 [NVP-AUY922] (top concentration 46.0829 µM)	260	362	35	49.2
Cc1ccc(NC(=O)c2ccc(CN3CCN(C)CC3)cc2)cc1Nc1nccc(-c2cccnc2)n1 [Imatinib] (top concentration 46.0829 µM)	478	504	62.3	80.2
COc1ccc(CC2SC(=O)NC2=O)cc1C(=O)NCc1ccc(C(F)(F)F)cc1 (stereo not drawn) [MK-767] (top concentration 46.0829 µM)	462	271	59.8	19.6
CCNC(=O)Nc1ccc2ncc(Nc3ccc(C)cc3)nc2n1 (top concentration 46.0829 µM)	307	347	20.8	27
COc1ccc(CC2NCCc3cc(OC)c(OC)cc32)cc1OC (stereo not drawn) [Tetrahydropapaverine] (top concentration 46.0829 µM)	437	429	51.3	56.7
CN(C)CCOc1ccc(/C(=C(/CCCl)c2ccccc2)c2ccccc2)cc1 [Toremifene] (top concentration 46.0829 µM)	432	477	3.26	1.34
C[C@@H]1CC[C@@]2(OC1)OC1CC3C4CC=C5CC(O)CCC5(C)C4CCC3(C)C1[C@@H]2C (stereo partly drawn) [Diosgenin] (top concentration 46.0829 µM)	569	453	101	91.8
NC(CO)(CO)CCc1ccc(Sc2cccc(OCc3ccccc3)c2)cc1Cl [KRP 203] (top concentration 46.0829 µM)	453	486	4.12	2.25
C[C@H]1[C@@H](CC(C[C@H]2O[C@@H]3O[C@]4(C)CC[C@H]5[C@H](C)CC[C@@H]([C@H]2C)[C@@]35OO4)C[S+](=O)([O-])c2ccc(COC(=O)N(C)C)cc2)O[C@@H]2O[C@]3(C)CC[C@H]4[C@H](C)CC[C@@H]1[C@@]24OO3 [ASR-isobudimer-SO2Ph-4-CH2OC(O)NMe2] (top concentration 46.0829 µM)	377	487	32.1	70.4
Cc1cc(Nc2cc(N3CCN(C)CC3)nc(Sc3ccc(NC(=O)C4CC4)cc3)n2)[nH]n1 [Tozasertib] (top concentration 46.0829 µM)	408	525	44	97.8
COc1ccc(C(=O)c2c(C)n(CCN3CCOCC3)c3cc(I)ccc23)cc1 [AM-630] (top concentration 46.0829 µM)	470	547	59.7	39.7
CC[S+](=O)([O-])N1CC(CC#N)(n2cc(-c3ncnc4[nH]ccc34)cn2)C1 [Baricitinib] (top concentration 46.0829 µM)	470	523	41.1	70.6
C[C@@H]1[C@H]\2[C@H](O)[C@H]3[C@H](N(C)C)\C(=C(C(N)=O)/C(=O)[C@@]3(O)\C(=C2C(=O)C4=C(O)C=CC=C14)O)O [Doxycycline] (top concentration 46.0829 µM)	507	467	84	59.7

SMILES	area under the dose-response curve (SB.mhdgc-1 [1])	area under the dose-response curve (SB.msgc-1 [2])	viability (SB.mhdgc-1 [3]) [%]	viability (SB.msgc-1 [4]) [%]
CC(=O)O[C@@]1(CC[C@H]2[C@@H]3\C=C(Cl)/C4=C/C(=O)[C@@H]5C[C@@H]5[C@]4(C)[C@H]3CC[C@]12C)C(C)=O [Cyproterone acetate] (top concentration 46.0829 µM)	443	454	2.19	4.65
CC(=O)N(C)C1(c2ccccc2)CCN(CCC[C@]2(c3ccc(Cl)c(Cl)c3)CCCN(C(=O)c3ccccc3)C2)CC1 [Osanetant] (top concentration 46.0829 µM)	468	469	3.99	15.8
CN1C(=O)C(=C/2N(C(=O)N(C3CC3)C(=O)C2=C1/NC4=CC=C(I)C=C4F)C5=CC=CC(=C5)NC(C)=O)\C [Trametinib] (top concentration 46.0829 µM)	410	457	35.8	62.4
COc1cc(Nc2ncc(F)c(Nc3ccc4c(n3)N(COP(=O)(O)O)C(=O)C(C)(C)O4)n2)cc(OC)c1OC [Fostamatinib disodium] (top concentration 46.0829 µM)	408	411	6.16	31
CC(=O)OCC(CCn1cnc2cnc(N)nc21)COC(C)=O [Famciclovir] (top concentration 46.0829 µM)	546	553	121	111
C=C[C@H]1CN2CCC1C[C@@H]2[C@@H](O)c1ccnc2ccccc12 (stereo partly drawn) [Cinchonine dihydrochloride] (top concentration 46.0829 µM)	528	266	32.1	8.49
COc1cccc2c1[C@]13CCN(CC4CC4)[C@H](C2)[C@]1(OC)CCC(=O)C3 [Cyprodime] (top concentration 46.0829 µM)	567	526	125	112
C[C@H]1[C@@H](C(=O)C[C@H]2O[C@@H]3O[C@]4(C)CC[C@H]5[C@H](C)CC[C@@H]([C@H]2C)[C@@]35OO4)O[C@@H]2O[C@]3(C)CC[C@H]4[C@H](C)CC[C@@H]1[C@@]24OO3 [BTM-2C-dimer ketone] (top concentration 46.0829 µM)	455	497	50.9	69
C/C(=C\c1csc(C)n1)[C@@H]1C[C@@H]2O[C@]2(C)CCC[C@H](C)[C@H](O)[C@@H](C)C(=O)C(C)(C)[C@@H](O)CC(=O)O1 [Epothilone B] (top concentration 46.0829 µM)	245	217	33.9	46.2
COc1cc2nccc(Oc3ccc(NC(=O)Nc4ccc(F)cc4F)c(F)c3)c2cc1OC [KI-8751] (top concentration 46.0829 µM)	490	484	26.1	57.2
CC1(C)O[C@@H]2C[C@H]3[C@@H]4C[C@H](F)C5=CC(=O)C=C[C@]5(C)[C@@]4(F)[C@@H](O)C[C@]3(C)[C@]2(C(=O)CO)O1 [Fluocinolone acetonide] (top concentration 46.0829 µM)	454	558	48.3	67.3
CCCN[C@H]1CCc2nc(N)sc2C1 [Pramipexole hydrochloride] (top concentration 46.0829 µM)	495	506	85.9	113
NC\1=N\C(=O)N(\C=N1)[C@H]2C[C@H](O)[C@@H](CO)O2 [Decitabine] (top concentration 46.0829 µM)	481	480	63.1	98.7
CC(C)(Oc1ccc(C2CC2(Cl)Cl)cc1)C(=O)O (stereo not drawn) [Ciprofibrate] (top concentration 92.1659 µM)	514	588	26.6	58
NC(=O)[C@@H](CCC(F)(F)F)N(Cc1ccc(-c2ncon2)cc1F)[S+](=O)([O-])c1ccc(Cl)cc1 [Avagacestat] (top concentration 46.0829 µM)	491	487	91.5	68.8
CC/1=C(/C(CC(=O)N1)C2=CC=C(C=C2)C(F)(F)F)C(=O)NC3=C(F)C=C4[NH]N=CC4=C3 (stereo not drawn) (top concentration 46.0829 µM)	407	539	67.9	78.2
